US20180280517A1, “Nanocomposite, a Preparation Method Thereof and Method for Treating Cancer Using the Same” (National Chiao Tung University, priority 2017, published 2018)

Experiments:
[1] = system: A549-ON; test: A549-ON cell viability / combination index; assay type: cell-based
Source text: (§1) The combination index or CI means a value acquired through a calculation based on the Combination Index Theorem. From CI value, the interaction between components within a drug having multiple components can be understood. For example, the CI value quantitatively defines synergism (CI<1), additive effect (CI=1), and antagonism (CI>1) among components.
(§2) The expression fraction affected (Fa) means the fraction affected of a component according to Median-Effect Principle. A CI-Fa plot can be used to define the synergism and antagonism relation between different components.
In a preferable embodiment, A549-ON is chosen as the cancer cell model. A549-ON is incubated with DMC, GEM, CHC/DMC, and CHC/GEM respectively to observe cell viability. In Table 3, DMC and GEM encapsulated by CHC has smaller IC50 comparing to those without CHC encapsulation, providing that an anti-cancer component encapsulated by CHC has higher toxic effect to the cells.
In an embodiment, a plurality of CHC/DMC-GEM having different DMC to GEM ratio including 1:1.2, 1:5, 1:12, and 1:25 are respectively incubated with A549-ON to find a component ratio with better synergistic effect. […]

[2] = system: A549; test: A549 cell viability / combination index; assay type: cell-based; conditions: Homo sapiens
Source text: as §1, §2
In another preferable embodiment, A549 cells, which are selected as cancer cell model, are respectively incubated with DMC, GEM, CHC/DMC, and CHC/GEM. In Table 4, DMC or GEM encapsulated by CHC has smaller IC50 comparing to those without CHC encapsulation, proving that an anti-cancer component encapsulated by CHC has higher toxic effect to the cells.
In an embodiment, a plurality of CHC/DMC-GEM having different DMC to GEM ratios including 1:2.5, 1:5, 1:10, and 1:20 are respectively incubated with A549 to find a drug ratio with better synergistic effect. After calculation, a CI versus Fa plot is shown in FIG. 7 based on the viability of A549 cells. […]

Compound | IC50 [1] [µg/mL] | IC50 [2] [µg/mL]
COc1cc(/C=C/C(O)=C/C(=O)/C=C/c2ccc(O)cc2)ccc1O [DMC, Demethoxycurcumin] | 10 | 10.3
Nc1ccn([C@@H]2O[C@H](CO)[C@@H](O)C2(F)F)c(=O)n1 [GEM, Gemcitabine] | 117 | 117
